Data: PMC3392265 (PLoS ONE, 2012)

target: T1, GenK (Corynebacterium glutamicum, UniProt Q8NLB7); test: inhibition of […]-gentisate uptake in RES167 cells; type: cell-based
T1 construct: full-length, native gene in intact C. glutamicum RES167 cells; mutants expressed from pXMJ19 in RES167 delta-genK; untagged as far as told; 12 predicted transmembrane helices
T1 sequence (Q8NLB7 whole entry): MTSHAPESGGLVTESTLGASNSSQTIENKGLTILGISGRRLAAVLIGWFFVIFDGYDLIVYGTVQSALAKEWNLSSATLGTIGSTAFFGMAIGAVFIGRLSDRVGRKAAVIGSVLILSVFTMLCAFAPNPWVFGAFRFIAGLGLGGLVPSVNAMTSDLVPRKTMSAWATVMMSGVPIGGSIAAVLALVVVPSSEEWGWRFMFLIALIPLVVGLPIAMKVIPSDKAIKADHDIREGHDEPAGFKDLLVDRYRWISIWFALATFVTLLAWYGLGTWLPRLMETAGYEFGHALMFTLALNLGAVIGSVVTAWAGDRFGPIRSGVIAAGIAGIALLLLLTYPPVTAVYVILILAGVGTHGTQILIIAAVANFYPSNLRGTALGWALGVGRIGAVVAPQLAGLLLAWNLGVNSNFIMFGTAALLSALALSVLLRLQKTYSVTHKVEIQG

Row | inhibition at 800 µM | Structure (SMILES)
1 | 40 to 60% | O=C(O)c1ccccc1 [benzoate]
2 | 40 to 60% | O=C(O)c1ccc(O)c(O)c1 [protocatechuate]
3 | 94% | O=C(O)c1cccc(O)c1 [3-hydroxybenzoate]

Row | Structure (SMILES) | inhibition at 800 µM
4 | Oc1ccccc1O [catechol] | 40 to 60%
